Results: patent US8227409B2, “Diketopiperazine microparticles with defined isomer contents” (MannKind Corporation, priority 2009, dated 2012)

Experiments:
[1] = Laser diffraction of powder emitted from dry powder inhalers: VMGD and container emptying; format: physicochemical; conditions: 56% trans, SSA 55, pressure drop 4 kPa
Text: Laser diffraction of dry powder formulations emitted from dry powder inhalers is a common methodology employed to characterize the level of de-agglomeration subjected to a powder. The methodology indicates a measure of geometric size rather than aerodynamic size as occurring in industry standard impaction methodologies. Typically, the geometric size of the emitted powder includes a volumetric distribution characterized by the median particle size, VMGD. Importantly, geometric sizes of the emitted particles are discerned with heightened resolution as compared to the aerodynamic sizes provided by impaction methods. Smaller sizes are preferred and result in greater likelihood of individual particles being delivered to the pulmonary tract. Thus, differences in inhaler de-agglomeration and ultimate performance can be easier to resolve with diffraction. In these experiments, inhalers were tested with laser diffraction at pressures analogous to actual patient inspiratory capacities to determine the effectiveness of the inhalation system to de-agglomerate powder formulations. Specifically, the formulations included cohesive diketopiperazine powders with an active insulin loaded ingredient and without. […] Reported in Table 6 are a VMGD and an efficiency of the container emptying during the testing. FDKP powders have an approximate Carr's index of 50 and TI powder has an approximate Carr's index of 40.

[2] = Solubility (stated in words); format: physicochemical

O=C(O)/C=C/C(=O)NCCCCC1NC(=O)C(CCCCNC(=O)/C=C/C(=O)O)NC1=O (stereo not drawn) [FDKP, 2,5-diketo-3,6-bis(N-fumaryl-4-aminobutyl)piperazine]
% CE ([1]; DPI 2): 92.5% | VMGD ([1]; DPI 2): 6.800 micron | % CE ([1]; MedTone): 89.5% | VMGD ([1]; MedTone): 21.200 micron | solubility ([2]; at neutral or basic pH): readily soluble | solubility ([2]; in acid): low solubility
